# Molecular target: T1, HDM2 (Homo sapiens, UniProt Q00987)
# T1 construct: Thioredoxin (N); made in house; host or cells: E. coli strain BL21(DE3)Rosetta
# Test: HDM2 FRET assay (inhibition of binding of FITC labeled p53-pocket peptide to HDM2)
# Conditions: 0.5 nM HDM2 (residues 17 to 125), 3nM peptide, two hour incubation at room temperature; read-out: FRET IC50
# In short: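 TR-FRET with 0.5 nM His-tagged recombinant HDM2, 3 nM FITC-labelled p53 peptide and 0.25 nM Tb-anti-His antibody in PBS, 0.01% BSA, 0.01% Tween-20, 0.1% DMSO. IC50 from em520/em495 ratio over 10-point dilutions, 4-parameter logistic fit.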
# T1 sequence (Q00987 17-125): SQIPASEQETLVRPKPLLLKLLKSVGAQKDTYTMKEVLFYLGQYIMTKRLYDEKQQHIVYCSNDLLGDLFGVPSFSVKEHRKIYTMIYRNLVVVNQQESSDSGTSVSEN
row,SMILES,IC50 [µM]
1,"C[C@H]1CC[C@H](Cn2c(C3CC3)nc3nc(-c4n[nH]c(=O)o4)nc(-c4cccc(Cl)c4)c32)CC1 [Example 24.1, 5-{6-(3-chlorophenyl)-8-cyclopropyl-7-[(trans-4-methylcyclohexyl)methyl]-7H-purin-2-yl}-1,3,4-oxadiazol-2(3H)-one]",0.0628
2,"C[C@H]1CC[C@H](Cn2c(C3CC3)nc3nc(-c4noc(=O)[nH]4)nc(-c4cccc(Cl)c4)c32)CC1 [Example 24.2, 3-{6-(3-chlorophenyl)-8-cyclopropyl-7-[(trans-4-methylcyclohexyl)methyl]-7H-purin-2-yl}-1,2,4-oxadiazol-5(4H)-one]",0.0417

# Same assay, conditions: Table 22; read-out: FRET IC50
row,SMILES,IC50 [µM]
1,"C[C@@H](Nc1nc(-c2noc(=O)[nH]2)nc2nc(C3OCc4ccccc43)n(C[C@H]3CC[C@H](C)CC3)c12)C1CCC1 (stereo partly drawn) [Example 22.80, 3-(6-{[(1R)-1-cyclobutylethyl]amino}-8-(1,3-dihydro-2-benzofuran-1-yl)-7-[(trans-4-methylcyclohexyl)methyl]-7H-purin-2-yl)-1,2,4-oxadiazol-5(4H)-one]",0.00247
2,"C[C@@H](Nc1nc(-c2noc(=O)[nH]2)nc2nc(C3(c4ccccc4)CCO3)n(C[C@H]3CC[C@H](C)CC3)c12)C1CCC1 (stereo partly drawn) [Example 22.81, 3-[6-{[(1R)-1-cyclobutylethyl]amino}-7-[(trans-4-methylcyclohexyl)methyl]-8-(2-phenyloxetan-2-yl)-7H-purin-2-yl]-1,2,4-oxadiazol-5(4H)-one]",0.011
3,"CCC(CO)c1nc2nc(-c3noc(=O)[nH]3)nc(N[C@H](C)C3CCC3)c2n1C[C@H]1CC[C@H](C)CC1 (stereo partly drawn) [Example 22.82, 3-(6-{[(1R)-1-cyclobutylethyl]amino}-8-[1-(hydroxymethyl)propyl]-7-[(trans-4-methylcyclohexyl)methyl]-7H-purin-2-yl)-1,2,4-oxadiazol-5(4H)-one]",0.0101

# Same assay, conditions: Table 23; read-out: FRET IC50
row,SMILES,IC50 [µM]
1,"C[C@H]1CC[C@H](Cn2c(C(=O)C3CCOCC3)nc3nc(-c4noc(=O)[nH]4)nc(-c4cccc(Cl)c4)c32)CC1 [Example 23.3, 3-[6-(3-chlorophenyl)-7-[(trans-4-methylcyclohexyl)methyl]-8-(tetrahydro-2H-pyran-4-ylcarbonyl)-7H-purin-2-yl]-1,2,4-oxadiazol-5(4H)-one]",0.0214
2,"C[C@H]1CC[C@H](Cn2c(C(=O)C3CCCCC3)nc3nc(-c4noc(=O)[nH]4)nc(-c4cccc(Cl)c4)c32)CC1 [Example 23.6, 3-{6-(3-chlorophenyl)-8-(cyclohexylcarbonyl)-7-[(trans-4-methylcyclohexyl)methyl] -7H-purin-2-yl}-1,2,4-oxadiazol-5(4H)-one]",0.0139
3,"C[C@H]1CC[C@H](Cn2c(C(=O)C3CCOCC3)nc3nc(-c4n[nH]c(=O)o4)nc(-c4cccc(Cl)c4)c32)CC1 [Example 23.9, 5-[6-(3-chlorophenyl)-7-[(trans-4-methylcyclohexyl)methyl] -8-(tetrahydro-2H-pyran-4-ylcarbonyl)-7H-purin-2-yl]-1,3,4-oxadiazol-2(3H)-one]",0.0246
4,"C[C@H]1CC[C@H](Cn2c(C3(F)COC3)nc3nc(-c4noc(=O)[nH]4)nc(-c4cncc(Cl)c4)c32)CC1 [Example 23.28, 3-{6-(5-chloropyridin-3-yl)-8-(3-fluorooxetan-3-yl)-7-[(trans-4-methylcyclohexyl)methyl]-7H-purin-2-yl}-1,2,4-oxadiazol-5(4H)-one]",0.0628
5,"C[C@H]1CC[C@H](Cn2c(C3(F)CCC3)nc3nc(-c4n[nH]c(=O)o4)nc(-c4cncc(Cl)c4)c32)CC1 [Example 23.38, 5-{6-(5-chloropyridin-3-yl)-8-(1-fluorocyclobutyl)-7-[(trans-4-methylcyclohexyl)methyl] -7H-purin-2-yl}-1,3,4-oxadiazol-2(3H)-one]",0.0311
6,"C[C@H]1CC[C@H](Cn2c(C3(F)CCCCC3)nc3nc(-c4noc(=O)[nH]4)nc(-c4cncc(Cl)c4)c32)CC1 [Example 23.39, 3-{6-(5-chloropyridin-3-yl)-8-(1-fluorocyclohexyl)-7-[(trans-4-methylcyclohexyl)methyl] -7H-purin-2-yl}-1,2,4-oxadiazol-5(4H)-one]",0.0181
7,"C[C@H]1CC[C@H](Cn2c(C3(F)CCCC3)nc3nc(-c4n[nH]c(=O)o4)nc(-c4cncc(Cl)c4)c32)CC1 [Example 23.40, 5-{6-(5-chloropyridin-3-yl)-8-(1-fluorocyclopentyl)-7-[(trans-4-methylcyclohexyl)methyl] -7H-purin-2-yl}-1,3,4-oxadiazol-2(3H)-one]",0.015
8,"C[C@H]1CC[C@H](Cn2c(C(=O)c3ccccc3)nc3nc(-c4noc(=O)[nH]4)nc(-c4cccc(Cl)c4)c32)CC1 [Example 23.43, 3-[6-(3-chlorophenyl)-7-[(trans-4-methylcyclohexyl)methyl]-8-(phenylcarbonyl)-7H-purin-2-yl]-1,2,4-oxadiazol-5(4H)-one]",0.0727
9,"C[C@H]1CC[C@H](Cn2c(C3(F)CCCCC3)nc3nc(-c4n[nH]c(=O)o4)nc(-c4cncc(Cl)c4)c32)CC1 [Example 23.56, 5-{6-(5-chloropyridin-3-yl)-8-(1-fluorocyclohexyl)-7-[(trans-4-methylcyclohexyl)methyl] -7H-purin-2-yl}-1,3,4-oxadiazol-2(3H)-one]",0.0107
10,"COC1(c2nc3nc(-c4noc(=O)[nH]4)nc(-c4cncc(Cl)c4)c3n2C[C@H]2CC[C@H](C)CC2)CCC1 [Example 23.62, 3-{6-(5-chloropyridin-3-yl)-8-(1-methoxycyclobutyl)-7-[(trans-4-methylcyclohexyl)methyl] -7H-purin-2-yl}-1,2,4-oxadiazol-5(4H)-one]",0.0131
11,"COC1(c2nc3nc(-c4noc(=O)[nH]4)nc(-c4cncc(Cl)c4)c3n2C[C@H]2CC[C@H](C)CC2)COC1 [Example 23.70, 3-{6-(5-chloropyridin-3-yl)-8-(3-methoxyoxetan-3-yl)-7-[(trans-4-methylcyclohexyl)methyl] -7H-purin-2-yl}-1,2,4-oxadiazol-5(4H)-one]",0.00944
12,"COC1(c2nc3nc(-c4noc(=O)[nH]4)nc(-c4cncc(Cl)c4)c3n2C[C@H]2CC[C@H](C)CC2)CCCCC1 [Example 23.75, 3-{6-(5-chloropyridin-3-yl)-8-(1-methoxycyclohexyl)-7-[(trans-4-methylcyclohexyl)methyl] -7H-purin-2-yl}-1,2,4-oxadiazol-5(4H)-one]",0.0307
13,"COC1(c2nc3nc(-c4n[nH]c(=O)o4)nc(-c4cncc(Cl)c4)c3n2C[C@H]2CC[C@H](C)CC2)CCCCC1 [Example 23.76, 5-{6-(5-chloropyridin-3-yl)-8-(1-methoxycyclohexyl)-7-[(trans-4-methylcyclohexyl)methyl] -7H-purin-2-yl}-1,3,4-oxadiazol-2(3H)-one]",0.0141
14,"COC1(c2nc3nc(-c4noc(=O)[nH]4)nc(-c4cncc(Cl)c4)c3n2C[C@H]2CC[C@H](C)CC2)CCCC1 [Example 23.77, 3-{6-(5-chloropyridin-3-yl)-8-(1-methoxycyclopentyl)-7-[(trans-4-methylcyclohexyl)methyl] -7H-purin-2-yl}-1,2,4-oxadiazol-5(4H)-one]",0.00806
15,"C[C@H]1CC[C@H](Cn2c(C3(c4ccccc4F)CC3)nc3nc(-c4noc(=O)[nH]4)nc(-c4cncc(Cl)c4)c32)CC1 [Example 23.100, 3-{6-(5-chloropyridin-3-yl)-8-[1-(2-fluorophenyl)cyclopropyl] -7-[(trans-4-methylcyclohexyl)methyl] -7H-purin-2-yl}-1,2,4-oxadiazol-5(4H)-one]",0.00594
16,"Cc1ocnc1C1(c2nc3nc(-c4noc(=O)[nH]4)nc(-c4cccc(Cl)c4)c3n2C[C@H]2CC[C@H](C)CC2)CC1 [Example 23.101, 3-{6-(3-chlorophenyl)-7-[(trans-4-methylcyclohexyl)methyl]-8-[1-(5-methyl-1,3-oxazol-4-yl)cyclopropyl]-7H-purin-2-yl}-1,2,4-oxadiazol-5(4H)-one]",0.0301
17,"C[C@H]1CC[C@H](Cn2c(C3(c4ccccn4)CC3)nc3nc(-c4nc(=O)o[nH]4)nc(-c4cccc(Cl)c4)c32)CC1 [Example 23.102, 3-[6-(3-chlorophenyl)-7-[(trans-4-methylcyclohexyl)methyl] -8-(1-pyridin-2-ylcyclopropyl)-7H-purin-2-yl]-1,2,4-oxadiazol-5(2H)-one]",0.017

# Same assay, conditions: Table 25; read-out: FRET IC50
row,SMILES,IC50 [µM]
1,"C[C@H]1CC[C@H](Cn2c(N3CCOC[C@H]3c3ccccc3)nc3nc(-c4noc(=O)[nH]4)nc(-n4cc(Cl)ccc4=O)c32)CC1 [Example 25.1, 5-chloro-1-{7-[(trans-4-methylcyclohexyl)methyl]-2-(5-oxo-4,5-dihydro-1,2,4-oxadiazol-3-yl)-8-[(3R)-3-phenylmorpholin-4-yl]-7H-purin-6-yl}pyridin-2(1H)-one]",0.00101
2,"C[C@H]1CC[C@H](Cn2c(N3CCOC[C@H]3c3ccccc3)nc3nc(-c4noc(=O)[nH]4)nc(Oc4ccc(Cl)cn4)c32)CC1 [Example 25.2, 3-{6-[(5-chloropyridin-2-yl)oxy]-7-[(trans-4-methylcyclohexyl)methyl]-8-[(3R)-3-phenylmorpholin-4-yl]-7H-purin-2-yl}-1,2,4-oxadiazol-5(4H)-one]",0.0154
3,"C[C@H]1CC[C@H](Cn2c(N3CCOC[C@H]3c3ccccc3)nc3nc(-c4n[nH]c(=O)o4)nc(Oc4ccc(Cl)cn4)c32)CC1 [Example 25.3, 5-{6-[(5-chloropyridin-2-yl)oxy]-7-[(trans-4-methylcyclohexyl)methyl]-8-[(3R)-3-phenylmorpholin-4-yl]-7H-purin-2-yl}-1,3,4-oxadiazol-2(3H)-one]",0.0201

# Same assay, conditions: Table 26; read-out: FRET IC50
row,SMILES,IC50 [µM]
1,"C[C@@H]1COCCN1c1nc2nc(CC(=O)O)nc(-c3cccc(Cl)c3)c2n1C[C@H]1CC[C@H](C)CC1 [Example 26.2, {6-(3-chlorophenyl)-7-[(trans-4-methylcyclohexyl)methyl]-8-[(3R)-3-methylmorpholin-4-yl]-7H-purin-2-yl} acetic acid]",0.783

# From EP2951180B1, “2,6,7,8 SUBSTITUTED PURINES AS HDM2 INHIBITORS” (Merck Sharp & Dohme Corp., priority 2013, dated 2014)
